This data set can be described thus: solubility. Type of data set: physicochemical. The settings on record: Example 37 complexes.

On to “D,L-dibenzenesulfonate-(1-benzylethylenediamine)-platinum II [dibenzenesulfonate complexes]”, for which the water solubility entry was “good water solubility”.

These data come from patent US4704464A, “Tumor retarding (1-benzyl-ethylenediamine)-platin (II)-complexes” (ASTA-Werke Aktiengesellschaft Chemische Fabrik, priority 1985, dated 1987).
